These results are taken from US10383909B2, “Use of a plant extract, pharmaceutical compositions and use thereof” (HEBRON FARMACEUTICA PESQUISA, DESENVOLVIMENTO E INOVACAO …, priority 2010, dated 2019).

Values joined by “and” are separate entries in the source; they are usually repeats but may differ in a detail not shown here. Identical values can stand only once.

Assay type in all cases: in vivo, human
Test [1] in a line: Patient questionnaire on gastritis symptoms before and after treatment. The following applies: gastritis patients, oral, four weeks (28 days). An excerpt: To evaluate the efficacy of hydroalcoholic extract of S. terebinthifolius in the form of a medication, 72 volunteer patients of both genders with diagnosed gastritis were selected. Anthropomorphic characteristics, such as age, weight and height were similar. The criteria for inclusion of patients in the sample were aged between 16 and 80 years (mean age was 40 years), with diagnosis of gastritis confirmed by endoscopy and pathological examination, and consent after clarification for study participation. We excluded patients who were treated with proton pump inhibitors, anti-inflammatory non-steroidal, H-2 receptor blockers and/or antacids during the month preceding the study.
The sample was randomly divided into two groups:
Group I—38 patients who used the medication based on Aroeira (Schinus terebinthifolius Raddi);
Group II—34 patients who used the drug Omeprazole (control group).
The protocol for administration of medications included: ingestion of one (1) the tablet based on Aroeira (about 233.60 mg) twice daily for four weeks (28 days), or the ingestion of 20 mg Omeprazole, two tablets twice daily for the same period.
For data analysis, we used the Epi Info program, v.3.5.1, and Microsoft Excel 2007. Since they are categorical variables, Odds Ratios were evaluated and significant results were verified through a crude chi-squared test or with a Yates correction, when applicable, and alternatively the Fisher Exact Test when indicated. A Z test was also used to compare proportions when the expected frequencies were greater than or equal to 5. Confidence intervals were calculated for 95% confidence, with significant differences smaller than 5%.
The results were obtained through a questionnaire completed by each patient, under the supervision of a specialist.

Another test concerns Helicobacter pylori. The test is described as follows: Analysis for Helicobacter pylori in biopsy after treatment. The conditions noted are these: after 28 days. On the procedure:
(§1) Patients included in the sample performed two esophagogastroduodenoscopy tests (EGD) with biopsy and analysis for Helicobacter pylori. The first test was made before the treatment, and the second, after four weeks (28 days) on medication. The protocol for administration of medications included: ingestion of one (1) the tablet based on Aroeira (about 233.60 mg) twice daily for four weeks (28 days), or the ingestion of 20 mg Omeprazole, two tablets twice daily for the same period. For data analysis, we used the Epi Info program, v.3.5.1, and Microsoft Excel 2007. Since they are categorical variables, Odds Ratios were evaluated and significant results were verified through a crude chi-squared test or with a Yates correction, when applicable, and alternatively the Fisher Exact Test when indicated. A Z test was also used to compare proportions when the expected frequencies were greater than or equal to 5. Confidence intervals were calculated for 95% confidence, with significant differences smaller than 5%.

Test [2] is described as follows: Intensity of gastritis by histopathological examination before and after treatment (Sydney System). How it is done: as §1, with “period. Classification with gradations and intensity of gastritis was based on the Sydney System.” for “period.”
Test [3] is described as follows: Esophagogastroduodenoscopy (EGD) before and after four weeks of treatment: gastritis present or absent. The conditions noted are these: 2nd EGD after 28 days.
From the text: as §1, with “To evaluate the efficacy of hydroalcoholic extract of S. terebinthifolius in the form of a medication, 72 volunteer patients of both genders with diagnosed gastritis were selected. Anthropomorphic characteristics, such as age, weight and height were similar. The criteria for inclusion of patients in the sample were aged between 16 and 80 years (mean age was 40 years), with diagnosis of gastritis confirmed by endoscopy and pathological examination, and consent after clarification for study participation. We excluded patients who were treated with proton pump inhibitors, anti-inflammatory non-steroidal, H-2 receptor blockers and/or antacids during the month preceding the study. Patients” for “Patients”, “period. Classification with gradations and intensity of gastritis was based on the Sydney System.” for “period.”

Where [4] appears, read: intensity before treatment Mild/Discrete.
[5] abbreviates: intensity before treatment Moderate.

`COc1ccc2[nH]c([S+]([O-])Cc3ncc(C)c(OC)c3C)nc2c1` (stereo not shown) [Omeprazole]: in test [1], the “Percentage of improvement in symptoms after treatment: Abdominal discomfort relieved with meals” value came to 85.70%, the “Percentage of improvement in symptoms after treatment: Frequent epigastric pain” value was found to be 72.70%, the “Percentage of improvement in symptoms after treatment: Heartburn” value stood at 71.40% and the “Percentage of improvement in symptoms after treatment: Nausea” value amounted to 72.20%. Also, in the test on Helicobacter pylori, the “H. pylori Absent after treatment, % (eradication rate)” value is 9.4% and 9.38%; the “H. pylori Absent after treatment, N° of patients” value is given as 3; the “H. pylori Present after treatment, %” value is 90.63%; the “H. pylori Present after treatment, N° of patients” value came out at 29. In addition, in test [2] (setting [4]), the “Intensity after treatment Mild/Discrete, %” value is 54.50%; the “Intensity after treatment Mild/Discrete, No. of patients” value is 12; the “Intensity after treatment Moderate, %” value stood at 45.5%; the “Intensity after treatment Moderate, N of patients” value was 10. Besides, in test [2] (setting [5]), the “Intensity after treatment Mild/Discrete, % (improvement)” value is recorded as 27.30%; the “Intensity after treatment Moderate, %” value was determined as 72.70%; the “Intensity after treatment Moderate, N of patients” value amounted to 8. Also, in test [3], the “Gastritis Absent after treatment, % (disappearance of endoscopic mucosal injury)” value turned out to be 0%; the “Gastritis Absent after treatment, N° of patients” value is recorded as 0; the “Gastritis Present after treatment, %” value is recorded as 100%; the “Gastritis Present after treatment, N° of patients” value was 34.
